Test results from patent US20250154144A1 (CHILDREN'S HOSPITAL MEDICAL CENTER, priority 2021, published 2025).
Read-outs that look alike come from different tables or passages of the source. Values belong to the molecule of their own block, whether it stands above or below them.

Experiments:
[1] = target: T1, FLT3 (Homo sapiens, UniProt P36888); assay: DiscoverX KINOMEscan competition binding, FLT3; design: using full-length kinases in the presence of cellular concentrations of ATP in live, uncompromised cells
T1 sequence (P36888 27-993): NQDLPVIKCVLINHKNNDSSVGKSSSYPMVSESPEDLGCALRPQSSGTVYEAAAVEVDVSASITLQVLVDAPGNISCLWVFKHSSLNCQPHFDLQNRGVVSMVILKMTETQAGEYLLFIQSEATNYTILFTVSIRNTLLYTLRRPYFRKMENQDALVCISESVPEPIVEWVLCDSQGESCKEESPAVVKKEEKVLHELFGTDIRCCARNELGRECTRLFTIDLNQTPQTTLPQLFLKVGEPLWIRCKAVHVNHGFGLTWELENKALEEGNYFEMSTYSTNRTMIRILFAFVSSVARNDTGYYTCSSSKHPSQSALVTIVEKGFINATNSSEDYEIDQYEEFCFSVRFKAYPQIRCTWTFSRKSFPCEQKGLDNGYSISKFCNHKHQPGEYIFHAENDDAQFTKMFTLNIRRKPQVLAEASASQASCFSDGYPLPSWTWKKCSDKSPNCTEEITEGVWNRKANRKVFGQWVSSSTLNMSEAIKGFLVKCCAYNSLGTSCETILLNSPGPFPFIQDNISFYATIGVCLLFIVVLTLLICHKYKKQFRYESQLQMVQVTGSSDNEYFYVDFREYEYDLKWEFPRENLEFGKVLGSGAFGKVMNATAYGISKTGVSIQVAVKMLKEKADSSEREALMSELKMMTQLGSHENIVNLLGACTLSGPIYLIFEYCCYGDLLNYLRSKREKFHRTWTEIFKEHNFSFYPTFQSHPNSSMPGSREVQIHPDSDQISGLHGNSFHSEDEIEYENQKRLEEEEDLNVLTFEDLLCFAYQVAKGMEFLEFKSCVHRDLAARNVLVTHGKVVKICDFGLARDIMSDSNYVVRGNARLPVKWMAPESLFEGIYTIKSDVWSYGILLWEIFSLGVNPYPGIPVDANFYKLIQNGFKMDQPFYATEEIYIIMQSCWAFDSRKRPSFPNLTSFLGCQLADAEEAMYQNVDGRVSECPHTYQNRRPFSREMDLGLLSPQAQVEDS

[2] = target: T2, FLT3 ITD, F691L (Homo sapiens, UniProt P36888, F691L, form not given); assay: DiscoverX KINOMEscan competition binding, FLT3 ITD, F691L; conditions: read-out: FLT3 ITD, F691L Kd
T2 sequence (P36888 1-993 F691L): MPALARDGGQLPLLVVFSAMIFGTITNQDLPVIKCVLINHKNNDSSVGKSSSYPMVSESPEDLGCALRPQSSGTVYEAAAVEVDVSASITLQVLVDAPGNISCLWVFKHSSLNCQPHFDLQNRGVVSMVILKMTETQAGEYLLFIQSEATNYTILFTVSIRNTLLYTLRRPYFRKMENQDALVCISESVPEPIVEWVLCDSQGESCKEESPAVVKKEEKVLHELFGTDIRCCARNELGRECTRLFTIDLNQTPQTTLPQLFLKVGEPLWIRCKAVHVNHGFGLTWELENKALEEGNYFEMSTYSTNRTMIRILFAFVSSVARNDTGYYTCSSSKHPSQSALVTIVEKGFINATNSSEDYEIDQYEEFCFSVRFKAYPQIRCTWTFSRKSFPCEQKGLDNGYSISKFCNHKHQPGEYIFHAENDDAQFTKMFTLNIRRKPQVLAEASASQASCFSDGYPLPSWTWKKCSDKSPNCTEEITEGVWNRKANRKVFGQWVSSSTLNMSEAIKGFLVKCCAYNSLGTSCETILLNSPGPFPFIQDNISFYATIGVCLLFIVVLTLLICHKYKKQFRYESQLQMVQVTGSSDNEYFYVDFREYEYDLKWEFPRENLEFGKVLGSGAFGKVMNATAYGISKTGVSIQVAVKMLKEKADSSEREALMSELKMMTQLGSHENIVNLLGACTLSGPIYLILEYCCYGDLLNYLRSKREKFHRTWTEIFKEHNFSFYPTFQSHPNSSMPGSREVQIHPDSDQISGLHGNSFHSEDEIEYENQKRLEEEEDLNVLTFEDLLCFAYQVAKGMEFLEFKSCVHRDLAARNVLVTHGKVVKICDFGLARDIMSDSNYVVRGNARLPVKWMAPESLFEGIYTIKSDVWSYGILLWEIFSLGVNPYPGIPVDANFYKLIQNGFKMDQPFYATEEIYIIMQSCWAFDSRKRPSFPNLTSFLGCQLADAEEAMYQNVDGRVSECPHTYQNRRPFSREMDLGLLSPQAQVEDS

[3] = test system: MOLM14(D835Y) cells; assay type: cell-based; conditions: for Excess HSA Score: 10 × 10
[4] = MOLM14(D835Y) cells, combination with Eprenetapopt/APR-246
[5] = MOLM14(D835Y) cells, combination with Venetoclax (ABT-199)

Kd [1]: 1.8 nM | Kd [2]: 0.078 nM
SMILES: COc1cc2ncc(-c3cncc(N[C@H]4CNC[C@@H]4F)n3)n2nc1C1CC1 [Compound 22, 6-(6-cyclopropyl-7-methoxyimidazo[1,2-b]pyridazin-3-yl)-N-((3S,4S)-4-fluoropyrrolidin-3-yl)pyrazin-2-amine]

Kd [1]: 0.19 nM | Kd [2]: 0.048 nM
SMILES: COc1cc2ncc(-c3cncc(N[C@H]4CNCC[C@@H]4F)n3)n2nc1C1CC1 [Compound 24, 6-(6-cyclopropyl-7-methoxyimidazo[1,2-b]pyridazin-3-yl)-N-((3S,4S)-4-fluoropiperidin-3-yl)pyrazin-2-amine]
Excess HSA Score ([3]; MOLM14(D835Y) cells, combination with (+)-BAY-1251152): −245.2 | Excess HSA Score ([3]; MOLM14(D835Y) cells, combination with AMG-232): 468.3 | Excess HSA Score ([3]; MOLM14(D835Y) cells, combination with AZD-5363): −1011 | Excess HSA Score [3, 4]: 143 | Excess HSA Score ([3]; MOLM14(D835Y) cells, combination with Ivosidenib): 282.2936 | Excess HSA Score ([3]; MOLM14(D835Y) cells, combination with Lenalidomide): 491.2 | Excess HSA Score ([3]; MOLM14(D835Y) cells, combination with Palbociclib): −732.6 | Excess HSA Score ([3]; MOLM14(D835Y) cells, combination with Prednisolone): 169.8 | Excess HSA Score ([3]; MOLM14(D835Y) cells, combination with SNDX-5613): −279.3 | Excess HSA Score ([3]; MOLM14(D835Y) cells, combination with TNO-155): −1249 | Excess HSA Score ([3]; MOLM14(D835Y) cells, combination with Trametinib): −336.8 | Excess HSA Score ([3]; MOLM14(D835Y) cells, combination with Ulixertinib): −260.4 | Excess HSA Score [3, 5]: −1890 | Comments [3, 4]: Antagonistic | Comments [3, 5]: Synergistic | Excess HSA Score ([3]; MOLM14(D835Y), title compound starting conc. 200 nM + (+)-BAY-1251152 starting conc. 1000 nM): −369.2 | Excess HSA Score ([3]; MOLM14(D835Y), title compound starting conc. 200 nM + Azacitidine (5-Azacytidine) starting conc. 20000 nM): −594 | Excess HSA Score ([3]; MOLM14(D835Y), title compound starting conc. 200 nM + Palbociclib starting conc. 10000 nM): −490.9 | Excess HSA Score ([3]; MOLM14(D835Y), title compound starting conc. 200 nM + Prednisolone starting conc. 10000 nM): 12.1697 | Excess HSA Score ([3]; MOLM14(D835Y), title compound starting conc. 200 nM + TNO-155 starting conc. 10000 nM): −944.7 | Excess HSA Score ([3]; MOLM14(D835Y), title compound starting conc. 200 nM + Venetoclax (ABT-199) starting conc. 2000 nM): −764.8 | Excess HSA Score ([3]; MOLM14(D835Y), title compound starting conc. 200 nM + Venetoclax (ABT-199) starting conc. 20000 nM): −71.65 | Excess HSA Score ([3]; MOLM14(D835Y), title compound starting conc. 20000 nM + (+)-BAY-1251152 starting conc. 1000 nM): −47.77 | Excess HSA Score ([3]; MOLM14(D835Y), title compound starting conc. 20000 nM + Azacitidine (5-Azacytidine) starting conc. 20000 nM): −49.15 | Excess HSA Score ([3]; MOLM14(D835Y), title compound starting conc. 20000 nM + Palbociclib starting conc. 10000 nM): 182.1 | Excess HSA Score ([3]; MOLM14(D835Y), title compound starting conc. 20000 nM + Prednisolone starting conc. 10000 nM): 153.7 | Excess HSA Score ([3]; MOLM14(D835Y), title compound starting conc. 20000 nM + TNO-155 starting conc. 10000 nM): −94.76 | Excess HSA Score ([3]; MOLM14(D835Y), title compound starting conc. 20000 nM + Venetoclax (ABT-199) starting conc. 2000 nM): −501.6 | Excess HSA Score ([3]; MOLM14(D835Y), title compound starting conc. 20000 nM + Venetoclax (ABT-199) starting conc. 20000 nM): −122.6
